In patent US9023843B2, “Antimicrobial compounds and methods of making and using the same” (Melinta Therapeutics, Inc., priority 2009, dated 2015):

Test system: Eschericia coli strain ATCC25922
Experiment: standard microdilution assay to determine minimum inhibitory concentrations (MICs)
Format: cell-based
Conditions: Escherichia coli, read-out: E. coli ATCC25922 MIC
Experimental: Minimum inhibitory concentrations (MICs) are determined by the microdilution method, typically in a final volume of 100 microliters, according to protocols outlined by The Clinical and Laboratory Standards Institute [CLSI; formerly the National Committee for Clinical Laboratory Standards (NCCLS)]. See CLSI: Methods for dilution antimicrobial susceptibility tests for bacteria that grow aerobically; approved standard-fifth edition. Wayne, Pa.: NCCLS; 2000. The assays can be also be performed in microtiter trays according to conventional methodologies as published by the CLSI. See CLSI. Methods for Dilution Antimicrobial Susceptibility Tests for Bacteria That Grow Aerobically; Approved Standard-Seventh Edition. CLSI Document M7-A7 [ISBN 1-56238-587-9] CLSI, 940 West Valley Road, Suite 1400, Wayne Pa. 19087-1898 USA, 2006).
The compounds of the present invention were tested for antimicrobial activity. The compounds were run against Eschericia coli strain ATCC25922 using a standard microdilution assay to determine minimum inhibitory concentrations (MICs). […] A “N/A” means that data is unavailable. It will be recognized by one skilled in the art that the compounds can be assessed against other bacterial organisms and that the presentation of data for activity against Eschericia coli is illustrative and in no way is intended to limit the scope of the present invention. The compounds of the present invention can be assayed against a range of other microorganisms depending upon the performance activity desired to be gathered. Furthermore, the “+”, “−”, and “N/A” representation and the selection of a cutoff value of 16 micrograms/ml is also illustrative and in no way is intended to limit the scope of the present invention.

Row | MIC | SMILES
1 | > 16 µg/mL | O=c1nc2c(cn1C1CCCNCC1)Oc1ccc(CNCCCN3CCNCC3)cc1N2 (stereo not drawn) [Compound 920]
2 | > 16 µg/mL | O=c1nc2c(cn1C1CCNCC1)Oc1ccc(CCc3cccc(F)c3)cc1N2 [Compound 579]
3 | > 16 µg/mL | N=C(N)NCCCN1CCC(n2cc3c(nc2=O)Nc2cc(-c4ccc(C(F)(F)F)nc4)ccc2O3)CC1 [Compound 690]
4 | > 16 µg/mL | NCCOc1cccc2c1Nc1nc(=O)n([C@H]3CC[C@H](N)CC3)cc1O2 [Compound 4005c]
5 | > 16 µg/mL | NC1CCC(n2cc3c(nc2=O)Nc2cc(CC(=O)NCCCN4CCNCC4)ccc2O3)CC1 (stereo not drawn) [Compound 903]
6 | > 16 µg/mL | O=c1nc2c(cn1C1CCC(NCCCN3CCNCC3)CC1)Oc1ccc(C3CCNCC3)cc1N2 (stereo not drawn) [Compound 1193]
7 | < 16 µg/mL | N=C(N)NCCCNC1CCC(n2cc3c(nc2=O)Nc2cc(C4CCN(C(=O)CN(Cc5ccc(F)c(F)c5)C5CCNCC5)CC4)ccc2O3)CC1 (stereo not drawn) [Compound 753]
8 | > 16 µg/mL | NCCCN1CCC(n2cc3c(nc2=O)Nc2ccccc2O3)CC1 [Compound 528]
9 | > 16 µg/mL | N=C(N)NCCCN1CCC(n2cc3c(nc2=O)Nc2cc(C4CCN(C(=O)Nc5ccc(F)cc5)CC4)ccc2O3)CC1 [Compound 733]
10 | > 16 µg/mL | CN(C)c1ncc(-c2ccc3c(c2)Nc2nc(=O)n(C4CCN(CCCN)CC4)cc2O3)cn1 [Compound 614]
11 | > 16 µg/mL | N=C(N)NCCCN1CCCC(n2cc3c(nc2=O)Nc2cc(C(=O)NCCCN4CCOCC4)ccc2O3)CC1 (stereo not drawn) [Compound 658]
12 | > 16 µg/mL | N=C(N)NCCCN1CCCC(n2cc3c(nc2=O)Nc2cc(-c4ccc(N5CCOCC5)cc4)ccc2O3)CC1 (stereo not drawn) [Compound 664]
13 | > 16 µg/mL | NCCCCCN1CCCC(n2cc3c(nc2=O)Nc2ccccc2O3)CC1 (stereo not drawn) [Compound 544]
14 | > 16 µg/mL | N=C(N)NCCCN1CCC(n2cc3c(nc2=O)Nc2cc(C(=O)Nc4ncn[nH]4)ccc2O3)CC1 [Compound 686]
15 | < 16 µg/mL | N=C(N)NCCCN[C@H]1CC[C@H](n2cc3c(nc2=O)Nc2c(OCCN)cccc2O3)CC1 [Compound 4004c]
16 | > 16 µg/mL | NCCCN1CCC(n2cc3c(nc2=O)Nc2cc(C(=O)NCCc4ccc(F)cc4)ccc2O3)CC1 [Compound 660]
17 | < 16 µg/mL | NCCCNC1CCC(n2cc3c(nc2=O)Nc2cc(C(=O)NCCN4CCNCC4)ccc2O3)CC1 (stereo not drawn) [Compound 740]
18 | > 16 µg/mL | N#Cc1cccc(-c2ccc3c(c2)Nc2nc(=O)n(C4CCCN(CCCNC(=N)N)CC4)cc2O3)c1 (stereo not drawn) [Compound 676]
19 | < 16 µg/mL | O=c1nc2c(cn1C1CCC(NCCCN3CCCCC3)CC1)Oc1ccc(C3CCNCC3)cc1N2 (stereo not drawn) [Compound 1234]
20 | > 16 µg/mL | NCCCNCc1ccc(-c2cn3c(=O)cc(-c4ccc(C(F)(F)F)cc4)[nH]c3nc2=O)cc1 [Compound 391]
21 | < 16 µg/mL | N=C(N)NCCCNC1CCC(n2cc3c(nc2=O)Nc2cc(C4CCN(C(=O)C5(N)CCCC5)CC4)ccc2O3)CC1 (stereo not drawn) [Compound 783]
22 | > 16 µg/mL | NCCCNCc1ccc(-n2cc3c(nc2=O)Nc2ccc(CCc4ccc(F)cc4)cc2O3)cc1 [Compound 558]

Row | MIC | SMILES
23 | > 16 µg/mL | N=C(N)NCCCN1CCC(n2cc3c(nc2=O)Nc2cc(C(=O)NCCCN4CCCC4=O)ccc2O3)CC1 [Compound 674]
24 | < 16 µg/mL | N=C(N)NCCCN1CCCC(n2cc3c(nc2=O)Nc2cc(C4CCN(C(=O)C5(N)CCCC5)CC4)ccc2O3)CC1 (stereo not drawn) [Compound 777]
25 | > 16 µg/mL | Cn1cnc(S(=O)(=O)N2CCC(c3ccc4c(c3)Nc3nc(=O)n(C5CCN(CCCNC(=N)N)CC5)cc3O4)CC2)c1 [Compound 681]
26 | < 16 µg/mL | N=C(N)NCCC(=O)N(CCCN)C1CCC(n2cc3c(nc2=O)Nc2cc(C4CCNCC4)ccc2O3)CC1 (stereo not drawn) [Compound 1145]
27 | > 16 µg/mL | N=C(N)NCCCNC1CCC(n2cc3c(nc2=O)Nc2cc(-c4ccc(C(F)(F)F)nc4)ccc2O3)CC1 (stereo not drawn) [Compound 671]
28 | < 16 µg/mL | NCCCN(CCCN)C1CCC(n2cc3c(nc2=O)Nc2cc(C4CCNCC4)ccc2O3)CC1 (stereo not drawn) [Compound 1244]
29 | > 16 µg/mL | NCCCNCc1ccc(-c2cn3c(=O)cc(Cc4ccc(F)c(F)c4)[nH]c3nc2=O)cc1 [Compound 411]
30 | < 16 µg/mL | NCCCNC(=O)C1CCC(n2cc3c(nc2=O)Nc2cc(C4CCNCC4)ccc2O3)CC1 (stereo not drawn) [Compound 1235]
31 | > 16 µg/mL | N=C(N)NCCCN1CCC(n2cc3c(nc2=O)Nc2cc(C(=O)NCc4ccc(Br)cc4)ccc2O3)CC1 [Compound 638]
32 | > 16 µg/mL | N=C(N)NCCCN1CCC(n2cc3c(nc2=O)Nc2cc(C(=O)Nc4cc(F)c(F)cc4F)ccc2O3)CC1 [Compound 685]
33 | > 16 µg/mL | NCCCNCc1ccc(-c2cn3c(=O)cc(Cc4cccc([N+](=O)[O-])c4)[nH]c3nc2=O)cc1 [Compound 447]
34 | < 16 µg/mL | N=C(N)NCCCN1CCCC(n2cc3c(nc2=O)Nc2ccccc2O3)CC1 (stereo not drawn) [Compound 603]
35 | < 16 µg/mL | CN(C)c1ncc(-c2ccc3c(c2)Nc2nc(=O)n(C4CCN(CCCNC(=N)N)CC4)cc2O3)cn1 [Compound 627]
36 | > 16 µg/mL | NCCCNCc1ccc(-c2cn3c(=O)cc(Cc4ccccc4OC(F)(F)F)[nH]c3nc2=O)cc1 [Compound 426]
37 | > 16 µg/mL | O=c1nc2[nH]c(-c3ccccc3F)cc(=O)n2cc1I [Compound 375]
38 | < 16 µg/mL | N=C(N)NCCCNC1CCC(n2cc3c(nc2=O)Nc2cc(C4CCNCC4)ccc2O3)CC1 (stereo not drawn) [Compound 993]
39 | > 16 µg/mL | N=C(N)NCCCN1CCC(n2cc3c(nc2=O)Nc2cc(-c4cccc(C(=O)N5CCOCC5)c4)ccc2O3)CC1 [Compound 651]
40 | > 16 µg/mL | NCCCNCc1ccc(-n2cc3c(nc2=O)Nc2ccc(-c4cnc(N5CCOCC5)nc4)cc2O3)cc1 [Compound 400]
41 | < 16 µg/mL | N=C(N)NCCCNC1CCC(n2cc3c(nc2=O)Nc2cc(C4CCN(C(=O)C5(N)CC5)CC4)ccc2O3)CC1 (stereo not drawn) [Compound 776]
42 | > 16 µg/mL | N=C(N)NCCCNC1CCC(n2cc3c(nc2=O)Nc2cc(C(=O)NCCc4c[nH]cn4)ccc2O3)CC1 (stereo not drawn) [Compound 763]
43 | > 16 µg/mL | N=C(N)NCCCN1CCC(n2cc3c(nc2=O)Nc2cc(C4CCN(C(=O)Nc5cc(F)c(F)cc5F)CC4)ccc2O3)CC1 [Compound 782]
44 | > 16 µg/mL | O=C1OCCN1CCCNC1CCC(n2cc3c(nc2=O)Nc2cc(C4CCNCC4)ccc2O3)CC1 (stereo not drawn) [Compound 1213]

Row | MIC | SMILES
45 | > 16 µg/mL | N=C(N)NCCCN1CCC(n2cc3c(nc2=O)Nc2ccccc2O3)CC1 [Compound 529]
46 | < 16 µg/mL | N=C(N)NCCCN1CCCC(n2cc3c(nc2=O)Nc2cc(C4CCN(C(=O)CN)CC4)ccc2O3)CC1 (stereo not drawn) [Compound 793]
47 | > 16 µg/mL | NCCCNCc1ccc(-n2cc3c(nc2=O)Nc2ccc(Br)cc2O3)cc1 [Compound 442]
48 | > 16 µg/mL | NCCCCCN1CCC(n2cc3c(nc2=O)Nc2ccccc2O3)CC1 [Compound 557]
49 | > 16 µg/mL | N[C@@H]1CCCN(C(=O)c2ccc3c(c2)Nc2nc(=O)n(C4CCCNCC4)cc2O3)C1 (stereo partly drawn) [Compound 908]
50 | > 16 µg/mL | N=C(N)NCCCN1CCC(n2cc3c(nc2=O)Nc2cc(C(=O)NCCN4CCOCC4)ccc2O3)CC1 [Compound 669]
51 | > 16 µg/mL | NC[C@H]1CC[C@H](n2cc3c(nc2=O)Nc2c(OCCNC(=O)NCc4ccccc4)cccc2O3)CC1 [Compound 4002c]
52 | < 16 µg/mL | N=C(N)NCCCN(C(=O)CCN)C1CCC(n2cc3c(nc2=O)Nc2cc(C4CCNCC4)ccc2O3)CC1 (stereo not drawn) [Compound 1134]
53 | > 16 µg/mL | COc1cc(-c2cc(=O)n3cc(-c4ccc(CNCCCN)cc4)c(=O)nc3[nH]2)cc(OC)c1OC [Compound 379]
54 | > 16 µg/mL | NCCCNC(=O)[C@H]1CC[C@H](n2cc3c(nc2=O)Nc2c(OCCN)cccc2O3)CC1 [Compound 4007c]
55 | < 16 µg/mL | N=C(N)NCCCNC1CCC(n2cc3c(nc2=O)Nc2cc(C4=CCNCC4)ccc2O3)CC1 (stereo not drawn) [Compound 938]
56 | > 16 µg/mL | NC[C@H]1CC[C@H](n2cc3c(nc2=O)Nc2c(OCc4ccccc4)cccc2O3)CC1 [Compound 1467]
57 | > 16 µg/mL | N=C(N)NCCCN1CCC(n2cc3c(nc2=O)Nc2cc(C4CCN(S(=O)(=O)c5cccnc5)CC4)ccc2O3)CC1 [Compound 738]
58 | > 16 µg/mL | N=C(N)NCCCN1CCC(n2cc3c(nc2=O)Nc2cc(C(=O)NCCc4ccc(F)cc4)ccc2O3)CC1 [Compound 659]
59 | < 16 µg/mL | N=C(N)NCCS(=O)(=O)NC1CCC(n2cc3c(nc2=O)Nc2cc(C4CCNCC4)ccc2O3)CC1 (stereo not drawn) [Compound 1133]
60 | > 16 µg/mL | NCCCNCc1ccc(-c2cn3c(=O)cc(Cc4cc(F)c(F)cc4F)[nH]c3nc2=O)cc1 [Compound 469]
61 | > 16 µg/mL | NCCCNCc1ccc(-n2cc3c(nc2=O)Nc2ccc(-c4ccc(F)cc4)cc2O3)cc1 [Compound 393]
62 | > 16 µg/mL | COCCN(C(=O)CN1CCC(c2ccc3c(c2)Nc2nc(=O)n(C4CCC(N)CC4)cc2O3)CC1)C1CCNCC1 (stereo not drawn) [Compound 1041]
63 | > 16 µg/mL | Cc1ccc(CCCNC2CCC(n3cc4c(nc3=O)Nc3cc(C5CCNCC5)ccc3O4)CC2)o1 (stereo not drawn) [Compound 1197]
64 | > 16 µg/mL | N=C(N)NCCCN1CCC(n2cc3c(nc2=O)Nc2cc(C4CCN(C(=O)C(N)CO)CC4)ccc2O3)CC1 (stereo not drawn) [Compound 718]
65 | < 16 µg/mL | N=C(N)NCCCNC1CCC(n2cc3c(nc2=O)Nc2cc(C4CCN(C(=O)Nc5ccc(F)cc5)CC4)ccc2O3)CC1 (stereo not drawn) [Compound 765]
66 | > 16 µg/mL | N=C(N)NCCCN1CCC(n2cc3c(nc2=O)Nc2cc(C(=O)NCC(F)(F)C(F)(F)F)ccc2O3)CC1 [Compound 643]
